Active and inactive are the calls of the source. The calls are words filed in the database; no cut-off is given here.

For assay [1], the system named is Mycolicibacterium smegmatis. Put plainly: Anti-mycobacterial activity against Mycobacterium smegmatis assessed as diameter of growth inhibition zone at 10 mM. The class given is functional. The conditions noted are these: read-out: DIZ.
The test system of assay [2] is MCF7. Put plainly: Anticancer activity against Homo sapiens (human) MCF7 cells assessed as inhibition of cell viability by SRB assay. The format is functional, cell-based. For orientation: In SRB staining, fixed cells bind dye roughly in proportion to their protein.
For assay [3], the target named is Beta-secretase 1 (Homo sapiens) (UniProt P56817). The assay is described as follows: Inhibition of Homo sapiens (human) recombinant BACE1 using FRET peptide Abz-YIWDEIDLMVLD-DNP as substrate at 50 uM preincubated with enzyme for 30 min prior to substrate addition measured by plate reader analysis.
Chain of Beta-secretase 1 (Homo sapiens) (P56817 whole entry): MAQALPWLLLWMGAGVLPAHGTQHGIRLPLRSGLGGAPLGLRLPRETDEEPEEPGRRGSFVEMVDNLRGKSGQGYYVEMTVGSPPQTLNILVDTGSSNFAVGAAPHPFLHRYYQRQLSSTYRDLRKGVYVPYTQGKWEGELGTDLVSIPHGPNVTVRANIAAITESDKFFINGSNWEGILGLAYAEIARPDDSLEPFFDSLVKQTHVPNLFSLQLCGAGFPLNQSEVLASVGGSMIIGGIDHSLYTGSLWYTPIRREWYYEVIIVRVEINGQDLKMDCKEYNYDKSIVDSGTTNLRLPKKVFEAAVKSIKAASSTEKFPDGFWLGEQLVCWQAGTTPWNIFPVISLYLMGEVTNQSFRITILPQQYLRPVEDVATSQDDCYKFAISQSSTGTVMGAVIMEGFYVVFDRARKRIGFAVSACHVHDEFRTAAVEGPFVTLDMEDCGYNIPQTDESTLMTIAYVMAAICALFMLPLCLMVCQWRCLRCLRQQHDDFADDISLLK

In the case of `O=C(/C=C/c1ccc(N(Cc2ccccc2)Cc2ccccc2)cc1)c1ccco1`, the zone of inhibition at 10000 µM in assay [1] came out at 15 mm.
For orientation: IC50 means the concentration at which inhibition is half-maximal. For `O=C(/C=C/c1ccc(N2CCN(CCO)CC2)cc1)c1ccc(Cl)cc1`, in assay [2], the IC50 stood at 50 µM.
Regarding `COc1cc(C(=O)/C=C/c2ccc(N(Cc3ccccc3)Cc3ccccc3)cc2)cc(OC)c1OC`, in assay [3], the inhibition result is “Active”.
Take `O=C(/C=C/c1ccc(N2CCN(CCO)CC2)cc1)c1ccc(Br)cc1`: the IC50 in assay [2] turned out to be 50 µM.

(Values after ChEMBL document CHEMBL3046084, “Synthesis and evaluation of p-N,N-dialkyl substituted chalcones as anti-cancer agents” (Med Chem Res, 2013).)
